Source: PMC5896266, “Development of Matrix Metalloproteinase-2 Inhibitors for Cardioprotection” (Frontiers in Pharmacology, 2018)
Read-outs that look alike come from different tables or passages of the source.

What was measured:
[1] = target: T1, MMP-2 enzyme isolated from rat heart (Rattus norvegicus, UniProt P33436); assay: Gelatin zymography on cardiac MMP-2; format: biochemical; conditions: for inhibition at 100 µM: cardiac MMP-2, gelatin zymography, read-out: Inhibition (%)±SEM at 100 μM final MMP inhibitor concentration; for EC50: concentration labelled EC50 in Supplementary Figure 4, doses calculated according to IC doses in vitro
T1 construct: we used full-length, active MMP-2 enzymes isolated from healthy young adult rat hearts; from tissue; host or cells: rat heart homogenate (healthy young adult rats)
T1 sequence (P33436 110-662): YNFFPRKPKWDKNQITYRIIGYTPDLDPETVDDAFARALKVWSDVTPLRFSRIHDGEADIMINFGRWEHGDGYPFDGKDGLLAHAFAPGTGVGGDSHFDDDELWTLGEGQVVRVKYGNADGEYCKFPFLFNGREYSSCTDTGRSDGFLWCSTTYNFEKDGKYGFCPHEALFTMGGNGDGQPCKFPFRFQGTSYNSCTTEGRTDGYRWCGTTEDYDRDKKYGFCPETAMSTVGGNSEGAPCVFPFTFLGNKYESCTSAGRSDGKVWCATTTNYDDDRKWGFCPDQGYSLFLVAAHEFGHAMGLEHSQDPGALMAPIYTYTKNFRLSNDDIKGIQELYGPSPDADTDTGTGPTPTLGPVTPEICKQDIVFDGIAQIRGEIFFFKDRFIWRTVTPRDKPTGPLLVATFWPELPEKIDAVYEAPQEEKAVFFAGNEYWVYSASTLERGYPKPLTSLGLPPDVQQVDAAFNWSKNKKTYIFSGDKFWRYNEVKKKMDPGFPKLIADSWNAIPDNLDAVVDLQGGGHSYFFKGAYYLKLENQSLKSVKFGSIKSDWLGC
Method: Gelatin zymography was performed as described previously (Kupai et al., [2010]; Bencsik et al., [2017]). MMP-2 was isolated from rat heart homogenates as follows: 50 μg protein/lane were loaded and separated by electrophoresis under non-reducing conditions on an 8% SDS-polyacrylamide gels copolymerized with 2 mg/ml gelatin from porcine skin (Sigma-Aldrich; St. Louis, MO). After electrophoresis, gels were washed in 2.5% Triton-X 100 with gentle agitation and then incubated for 20 h at 37°C in zymography development buffer (50 mM Tris-HCl, pH 7.5, containing 5 mM CaCl2, 200 mM NaCl) in the presence or abscence of the MMP inhibitor compounds. Zymographic gels were stained in a 0.05% Coomassie Brilliant Blue R-250 solution followed by destaining, and then zymograms were scanned. MMP activity was detected as a colorless transparent zone on a blue background and the clear bands in the gel were quantified by densitometry using the Quantity One software (Bio-Rad, Hercules, CA). The obtained density values were measured and percentage of inhibition values were then calculated.
To confirm the MTS screen results, we tested the potential MMP inhibitor molecules on MMP-2 enzyme isolated from rat heart in vitro. Therefore, we applied the MMPIs at 1 and 100 μM final concentration in the enzyme's development buffer (Table 3).
After the chemical optimization of the novel MMP inhibitor lead candidates, we determined their IC50 values by using gelatin zymography. During zymographic analysis, we used full-length, active MMP-2 enzymes isolated from healthy young adult rat hearts. Subsequently, the cardio-cytoprotective effects of the selected candidates having the lowest IC50 values to MMP-2 were tested in cultured neonatal cardiac myocytes subjected to simulated I/R injury. Cardiac myocyte cell culture assay allowed a relatively high throughput biological efficacy testing (Gorbe et al., [2010]) of the selected lead candidates in several dose ranges at different levels of inhibition of MMP-2 activity.

MMP-9 = MMP-9 (Homo sapiens, UniProt P14780); assay: MMP-9 inhibition (inhibitory profile); format: biochemical; conditions: Table 2
Chain of MMP-9 (P14780 94-707, species assumed): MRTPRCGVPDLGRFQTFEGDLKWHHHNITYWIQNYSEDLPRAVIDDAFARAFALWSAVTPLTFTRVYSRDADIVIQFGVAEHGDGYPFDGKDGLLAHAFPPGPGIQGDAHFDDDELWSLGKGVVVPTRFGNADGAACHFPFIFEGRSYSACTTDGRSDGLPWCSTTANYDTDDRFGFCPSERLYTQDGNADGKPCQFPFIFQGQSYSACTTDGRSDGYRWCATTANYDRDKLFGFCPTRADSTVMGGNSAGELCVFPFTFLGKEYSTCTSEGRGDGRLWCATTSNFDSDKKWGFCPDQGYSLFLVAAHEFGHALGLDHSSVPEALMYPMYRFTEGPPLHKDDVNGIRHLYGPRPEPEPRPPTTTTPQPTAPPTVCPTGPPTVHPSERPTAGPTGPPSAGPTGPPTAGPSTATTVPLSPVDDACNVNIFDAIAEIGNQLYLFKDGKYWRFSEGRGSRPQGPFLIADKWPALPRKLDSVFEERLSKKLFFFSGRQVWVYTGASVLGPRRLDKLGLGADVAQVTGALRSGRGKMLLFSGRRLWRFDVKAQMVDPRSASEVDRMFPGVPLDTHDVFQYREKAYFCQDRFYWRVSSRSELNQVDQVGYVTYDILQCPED
Method: (§1) The compounds were measured for MMP-1, 2, 9, 13 to determine their inhibitory profile. Efficiency Index amplifies the two major required effects, selectivity against MMP-1 and the inhibitory activity.

MMP-13 = MMP-13 (Homo sapiens, UniProt P45452); assay: MMP-13 inhibition (inhibitory profile); format: biochemical; conditions: Table 2
Method: as §1

MMP-1 [2] = target: T2, MMP-1 (Homo sapiens, UniProt P03956); assay: MMP-1 inhibition (inhibitory profile); format: biochemical; conditions: Table 2
T2 sequence (P03956 100-469): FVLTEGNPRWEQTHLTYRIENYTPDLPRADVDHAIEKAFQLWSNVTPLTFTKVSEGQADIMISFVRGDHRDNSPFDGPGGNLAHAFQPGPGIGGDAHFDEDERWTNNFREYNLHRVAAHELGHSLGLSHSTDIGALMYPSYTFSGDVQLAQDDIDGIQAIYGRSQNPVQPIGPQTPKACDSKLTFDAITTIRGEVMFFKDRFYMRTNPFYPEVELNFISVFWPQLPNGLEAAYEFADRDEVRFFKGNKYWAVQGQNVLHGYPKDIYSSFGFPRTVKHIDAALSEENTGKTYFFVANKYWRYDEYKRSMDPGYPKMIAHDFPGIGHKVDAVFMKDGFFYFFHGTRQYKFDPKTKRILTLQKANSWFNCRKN
Method: as §1

[3] = target: T3, Human MMP-2 catalytic domain (Homo sapiens, UniProt P08253, DEL222-396); assay: Fluorometric MMP-2 inhibition assay (MTS), catalytic domain; format: biochemical
T3 construct: Human MMP-2 catalytic domain (residues 110-221, 397-455); made in house
T3 sequence (P08253 with tags, fused parts or gaps DEL222-396 limits assumed): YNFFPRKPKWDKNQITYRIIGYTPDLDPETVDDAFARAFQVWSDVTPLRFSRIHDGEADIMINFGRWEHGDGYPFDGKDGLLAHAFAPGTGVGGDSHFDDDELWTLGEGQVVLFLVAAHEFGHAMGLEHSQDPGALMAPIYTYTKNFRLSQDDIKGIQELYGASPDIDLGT
Method: In vitro MMP-2 activity was then measured, using a fluorometric assay in a 384 well format. Human MMP-2 catalytic domain (residues 110-221, 397-455) (Feng et al., [2000]) was expressed in E. coli in form of inclusion bodies. The protein was refolded and then purified by means of Ni-NTA affinity and anion exchange chromatography. Inhibition assays were carried out in 50 mM Tris, 5 mM CaCl2, 300 mM NaCl, 20 μM ZnSO4, pH = 7.5 buffer. For inhibition studies the catalytic domain of the enzyme was pre-incubated with varying amount of inhibitor for 30 min. […] After 1 h incubation at 37°C the fluorescence was detected using a Wallac 1420 Victor2 microplate reader at 320 nm/405 nm Ex/Em wavelength. As an alternative substrate we also used 5-FAM-Pro-Leu-Gly-Leu-Dap(QXL™ 520)-Ala-Arg-NH2, where the fluorescence was detected at 485 nm/520 nm. For each inhibitor candidate, the percentage of inhibition was determined in duplicate experiments at six inhibitor concentrations, chosen to observe a 5–95% range of inhibition.
Since hydroxamic acids are reported as the primary zinc-binding motif, we intended to select such a library from the AMRI 200,000 member non-exclusive compound repository as a starting point of our drug discovery efforts. Since only a few compounds were available in the repository as hydroxamic acids and the conversion of acids to hydroxamic acids were not applicable to HT parallel synthesis, we decided first to select free acids from the AMRI's compound collection. […] The selected acids were screened in a fluorescent assay using a recombinant human MMP-2 catalytic fragment and a synthetic peptide substrate. […] The hydroxamic acid pairs of the previously measured acids were then tested.

MMP-2 = conditions: Figure 1, known MMP-2 inhibitors; cited from earlier work
MMP-1 [4] = target: T2, MMP-1; conditions: Figure 1, known MMP-2 inhibitors; cited from earlier work
[5] = Table 1, acids vs hydroxamic acids, catalytic fragment

| Compound | inhibition at 100 µM [1] [%] | EC50 [1] [µM] | IC50 (MMP-9) [µM] | IC50 (MMP-13) [µM] | IC50 (MMP-1 [2]) [µM] | IC50 ([3]; Table 2) [µM] | IC50 [3, 5] [µM] | IC50 (MMP-2) [µM] | IC50 (MMP-1 [4]) [µM] |
| --- | --- | --- | --- | --- | --- | --- | --- | --- | --- |
| O=C(O)c1csc(CN(Cc2ccc(F)cc2)Cc2ccc(OCc3ccncc3)cc2)n1 [MMPI-1248] | 100 | 9 | 8.8 | 1.24 | 47 | 8 |  |  |  |
| O=C(O)c1csc(CN(Cc2ccc(OCc3ccccc3)cc2)Cc2cccc(F)c2)n1 [MMPI-1133] | 11.1 ± 1.58 |  |  | 4.7 | 6.8 | 25 |  |  |  |
| O=C(NO)c1csc(CN(Cc2ccc(F)cc2)Cc2ccc(OCc3ccccc3)cc2)n1 [AMRI-101H] |  |  |  |  |  |  | 12 |  |  |
| O=C(O)c1csc(CN(Cc2ccc(F)cc2)Cc2ccc(OCc3cccnc3)cc2)n1 [MMPI-1260] | 100 | 17.7 | 37 | 2.5 | 51 | 5.7 |  |  |  |
| O=C(O)c1csc(CN(Cc2ccc(F)cc2)Cc2ccc(-c3ccccc3)cc2)n1 [MMPI-1254] | 100 | 32 | 20 | 3 | 17 | 30 |  |  |  |
| O=C(O)c1c[nH]c(CN(Cc2ccc(F)cc2)Cc2ccc(OC(c3ccccc3)c3ccccc3)cc2)n1 [MMPI-1245] | 100 |  | 8 | 0.28 | 16 | 35 |  |  |  |
| O=C(O)c1csc(CN(Cc2ccncc2)Cc2ccc(OCc3ccccc3)cc2)n1 [MMPI-1252] | 100 |  | ≥ 500 | 1.5 | 115 | 54 |  |  |  |
| O=C(O)c1csc(CN(Cc2ccc(OCc3ccccc3)cc2)C(c2ccccc2)c2ccccc2)n1 [MMPI-1155] | 47 ± 19.1 |  | 10 | 1.76 | 26 | 25 |  |  |  |
| O=C(NO)c1csc(CN(Cc2cccc(Cl)c2)Cc2cccc(C(F)(F)F)c2)n1 [AMRI-102H] |  |  |  |  |  |  | 11 |  |  |
| O=C(O)c1csc(CN(Cc2ccc(OCc3ccccc3)cc2)Cc2cccnc2)n1 [MMPI-1253] | 100 |  | ≥ 500 | 8 | 240 | 90 |  |  |  |
| O=C(O)C(c1ccccc1)N(Cc1ccc(OCc2ccccc2)cc1)Cc1cccc(F)c1 (stereo not drawn) [MMPI-1140] | 81.1 ± 3.88 |  | 39 | 2.6 | 12 | 20 |  |  |  |
| O=C(NO)c1csc(CN(CCC(c2ccccc2)c2ccccc2)Cc2ccccc2F)n1 [AMRI-103H] |  |  |  |  |  |  | 17.6 |  |  |
| O=C(O)c1csc(CN(Cc2ccc(F)cc2)Cc2ccc(OCc3ccccc3)cc2)n1 [MMPI-1157] | 100 | 18 | 15 | 1.6 |  |  | 3.4 |  |  |
| CC1(C)OCC(C(CS(=O)(=O)c2ccc(Oc3ccc(OC(F)(F)F)cc3)cc2)N(O)C=O)O1 (stereo not drawn) [ABT-518] |  |  |  |  |  |  |  | 0.0008 | 8.9 |
| Cc1ccc(CN(Cc2ccc(OCc3ccccc3)cc2)Cc2nc(C(=O)O)c[nH]2)cc1 [MMPI-1247] | 100 | 16 | 100 | 3.3 | 33 | 15 |  |  |  |
| O=C(O)c1csc(CN(Cc2cccc(Cl)c2)Cc2cccc(C(F)(F)F)c2)n1 [AMRI-102A] |  |  |  |  |  |  | 6.2 |  |  |
| O=C(O)c1csc(CN(CCC(c2ccccc2)c2ccccc2)Cc2ccccc2F)n1 [AMRI-103A] |  |  |  |  |  |  | 7.6 |  |  |
